Experimental data from patent US20260165323A1, “USE OF STROBILURIN TYPE COMPOUNDS FOR COMBATING PHYTOPATHOGENIC FUNGI CONTAINING AN AMINO ACID SUBSTITUTION F129L IN THE MITOCHONDRIAL CYTOCHROME B PROTEIN CONFERRING RESISTANCE TO QO […]” (priority 2022, published 2026).

Key:
Assay type in all cases: in vivo
[1] = system: Phakopsora pachyrhizi containing the amino acid substitution F129L in the mitochondrial cytochrome b protein; assay: Use Example 1: protective control of soybean rust on soybeans (PHAKPA P2); settings: inoculated 2 days after spraying, % diseased leaf area
Procedure, shortened: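 Soybean seedling leaves sprayed to run-off with compound in acetone/DMSO–Wettol–water at the stated concentration, kept 2 days at 23-27° C, then inoculated with Qo-inhibitor-resistant F129L P. pachyrhizi. After 24 h at ~95% RH, 20-24° C, and up to 14 days in greenhouse, % diseased leaf area scored visually.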

[2] = system: Phakopsora pachyrhizi containing the amino acid substitution F129L in the mitochondrial cytochrome b protein; assay: Use Example 2: protective control of soybean rust on soybeans (PHAKPA P6); settings: inoculated six days after spraying, % diseased leaf area
Procedure, shortened: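 Compound in acetone and/or DMSO with Wettol (99:1), diluted with water, was sprayed to run-off on potted soybean seedlings. After six days at 23–27°C and 60–80% RH, plants were inoculated with a Qo-resistant F129L strain and held 24 h at about 95% RH. Percent diseased leaf area was scored visually after up to 14 days.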

[3] = system: Puccinia recondita; assay: Use Example 3: curative control of brown rust on wheat (PUCCRT K4); settings: % diseased leaf area
Procedure, shortened: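 Wheat seedlings inoculated with Puccinia recondita spores, held 24 h at 95–99% RH, 20–24° C in dark, then 3 days in greenhouse before spraying to run-off (curative). Compound in acetone/DMSO–Wettol–water. After 5–7 further days at 20–24° C, 65–70% RH, % diseased leaf area scored visually.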

[4] = system: Puccinia recondita; assay: Use Example 4: preventative control of brown rust on wheat (PUCCRT P7); settings: inoculated seven days after spraying, % diseased leaf area
Procedure, shortened: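 First two leaves of potted wheat seedlings sprayed to run-off with compound in acetone/DMSO–emulsifier–water, then inoculated with Puccinia recondita spores seven days later. Plants held 24 h dark at 95–99% RH and 20–24 °C, then 9–11 days in greenhouse; diseased leaf area (%) scored visually.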

| SMILES | % PHAKPA (F129L) Disease level P2 at 4 ppm [1] [%] | % PHAKPA (F129L) Disease level P2 at 16 ppm [1] [%] | % PHAKPA (F129L) Disease level P6 at 4 ppm [2] [%] | % PHAKPA (F129L) Disease level P6 at 16 ppm [2] [%] | % PUCCRT Disease level K4 at 4 ppm [3] [%] | % PUCCRT Disease level K4 at 16 ppm [3] [%] | % PUCCRT Disease level P7 at 4 ppm [4] [%] | % PUCCRT Disease level P7 at 16 ppm [4] [%] |
| --- | --- | --- | --- | --- | --- | --- | --- | --- |
| COC/C(=N\OCc1c(Cl)cccc1/C(=N\OC)C(=O)OC)c1ccccc1F [compound 19] | 33 | 6 | 77 | 31 | 87 | 80 | 53 | 15 |
| CNC(=O)/C(=N/OC)c1cccc(Cl)c1CO/N=C(\COC)c1ccc(Cl)cc1F [compound 100] | 24 | 2 | 20 | 3 | 78 | 6 | 12 | 4 |
| CO/C=C(/C(=O)OC)c1cccc(Cl)c1CO/N=C(\COC)c1cccc(OC)c1 [compound 121] | 4 | 0 | 6 | 0 | 5 | 1 | 32 | 4 |
| CO/C=C(/C(=O)OC)c1cccc(Cl)c1CO/N=C(\COC)c1ccc(Cl)cc1 [compound 35] | 16 | 1 | 30 | 4 | 73 | 7 | 14 | 0 |
| CCOC/C(=N\OCc1c(Cl)cccc1/C(=C\OC)C(=O)OC)c1cccc(Cl)c1 [compound 38] | 23 | 3 | 50 | 6 | 50 | 8 | 20 | 2 |
| CO/C=C(/C(=O)OC)c1cccc(Cl)c1CO/N=C(\COC)c1cccc(Cl)c1 [compound 39] | 2 | 0 | 10 | 1 | 9 | 1 | 3 | 0 |
| CNC(=O)/C(=N/OC)c1cccc(Cl)c1CO/N=C(\COC)c1ccc(Cl)c(F)c1 [compound 109] | 13 | 2 | 37 | 4 | 63 | 4 | 5 | 0 |
| CO/C=C(/C(=O)OC)c1cccc(Cl)c1CO/N=C(\COC)c1ccc(F)cc1Cl [compound 93] | 13 | 1 | 43 | 15 | 83 | 19 | 53 | 16 |
| CNC(=O)/C(=N/OC)c1cccc(Cl)c1CO/N=C(\COC)c1cccc(F)c1 [compound 41] | 3 | 0 | 14 | 1 | 72 | 12 | 23 | 4 |
| CCOC/C(=N\OCc1c(Cl)cccc1/C(=N\OC)C(=O)NC)c1ccc(F)cc1 [compound 48] | 80 | 7 | 80 | 17 | 77 | 50 | 63 | 17 |
| CO/C=C(/C(=O)OC)c1cccc(Cl)c1CO/N=C(\COC)c1ccccc1 [compound 11, Methyl-(E)-2-[3-chloro-2-[[(Z)-(2-methoxy-1-phenyl-ethylidene)amino]oxymethyl]phenyl]-3-methoxy-prop-2-enoate] | 2 | 0 | 11 | 0 | 7 | 0 | 25 | 1 |
| CO/C=C(/C(=O)OC)c1cccc(Cl)c1CO/N=C(\COC)c1ccc(F)cn1 [compound 131, Methyl (E)-2-[3-chloro-2-[[(Z)-[1-(5-fluoro-2-pyridyl)-2-methoxy-ethylidene]amino]oxymethyl]phenyl]-3-methoxy-prop-2-enoate] | 1 | 0 | 1 | 0 | 2 | 0 | 32 | 1 |
| CNC(=O)/C(=N/OC)c1cccc(Cl)c1CO/N=C(\COC)c1cccc(Cl)c1 [compound 43] | 6 | 0 | 20 | 2 | 72 | 10 | 10 | 3 |
| CNC(=O)/C(=N/OC)c1cccc(Cl)c1CO/N=C(\COC)c1ccc(F)c(F)c1 [compound 97] | 3 | 0 | 17 | 1 | 9 | 3 | 23 | 4 |
| CCOC/C(=N\OCc1c(Cl)cccc1/C(=C\OC)C(=O)OC)c1c(F)cc(F)cc1F [compound 30] | 7 | 0 | 25 | 5 | 77 | 35 | 80 | 37 |
| CCOCC(=NOCc1c(Cl)cccc1C(=COC)C(=O)OC)c1ccccc1F [compound 18] | 6 | 0 | 22 | 2 | 77 | 32 | 80 | 30 |
